Results reported in US11230526B1, “Cylcoalkenyl derivatives useful as agonists of the GPR120 and/or GPR40 receptors” (Janssen Pharmaceutica NV, priority 2018, dated 2022).
pEC50: −log10 of the molar value.

Assays:
Human GPR120 short form = molecular target: T1, Human GPR120 short form (Homo sapiens, UniProt Q5NUL3); test: Human GPR120 calcium flux assay, Procedure Calcium B (4200 cells/well); format: cell-based
T1 construct: expressed in transfected cells
T1 sequence (Q5NUL3 1-361): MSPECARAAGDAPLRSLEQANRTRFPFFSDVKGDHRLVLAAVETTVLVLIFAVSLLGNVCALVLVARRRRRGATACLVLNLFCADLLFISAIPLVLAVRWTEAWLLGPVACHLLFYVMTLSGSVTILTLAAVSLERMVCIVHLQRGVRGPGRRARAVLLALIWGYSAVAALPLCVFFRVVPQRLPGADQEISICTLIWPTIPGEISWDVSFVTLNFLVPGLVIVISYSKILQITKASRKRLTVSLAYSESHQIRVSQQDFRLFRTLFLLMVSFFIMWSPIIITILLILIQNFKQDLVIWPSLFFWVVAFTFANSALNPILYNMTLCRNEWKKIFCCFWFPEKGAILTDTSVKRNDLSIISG
In short: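 Agonist EC50 came from a four-parameter fit of RFU (Fmax−Fmin) read over 300 s on FLIPR. Cells were HEK293 stably transfected with human GPR120 (NM_001195755.1) at 4200 per well, serum-starved 1 h and loaded with Fluo-4 NW dye with probenecid before ligand addition.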

human GPR40 = molecular target: T2, human GPR40 (Homo sapiens, UniProt O14842); test: GPR40 calcium flux assay, human GPR40; format: cell-based; settings: HEK293 cells stably expressing GPR40; table does not say human or rat
T2 construct: expressed in transfected cells
T2 sequence (O14842 whole entry): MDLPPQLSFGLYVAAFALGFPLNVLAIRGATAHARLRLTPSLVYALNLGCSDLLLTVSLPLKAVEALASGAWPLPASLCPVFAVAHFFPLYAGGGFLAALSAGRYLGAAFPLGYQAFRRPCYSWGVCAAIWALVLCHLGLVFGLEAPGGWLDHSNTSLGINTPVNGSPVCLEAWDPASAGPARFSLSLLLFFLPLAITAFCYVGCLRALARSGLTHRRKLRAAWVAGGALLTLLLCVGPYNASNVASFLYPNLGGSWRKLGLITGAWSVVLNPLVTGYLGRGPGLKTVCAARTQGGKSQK
In short: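 Cells preincubated 1 h at 37° C. in HBSS, 20 mM HEPES, 0.1% BSA, then Fluo 8 calcium dye 30 min at 37° C. and 15 min at room temperature.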

SMILES | pEC50 (Human GPR120 short form) | pEC50 (human GPR40)
CCCC1=C(COc2ccc(CCC(=O)O)c(Cl)c2)CCCC1 [Compound 591, 3-[2-chloro-4-[(2-propylcyclohexen-1-yl)methoxy]phenyl]Propanoic Acid] | 5.62 | 6.37
O=C(O)CCc1ccc(OCC2=C(C3CC4CCC3C4)CCCC2)cc1C(F)(F)F (stereo not drawn) [Compound 592, 3-[4-[(2-norbornan-2-ylcyclohexen-1-yl)methoxy]-2-(trifluoromethyl)phenyl]Propanoic Acid] | < 5.30 | 5.81
O=C(O)CCc1ccc(OCC2=C(C3CC4CCC3C4)CCCC2)cc1Cl (stereo not drawn) [Compound 593, 3-[2-chloro-4-[(2-norbornan-2-ylcyclohexen-1-yl)methoxy]phenyl]Propanoic Acid] | < 5.30 | 5.89
O=C(O)CCc1ccc(OCC2=C(C3CCCC3)CCCC2)cc1Cl [Compound 594, 3-[2-chloro-4-[(2-cyclopentylcyclohexen-1-yl)methoxy]phenyl]Propanoic Acid] | 6.44 | < 5.00
O=C(O)CCc1ccc(OCC2=C(Cc3cncs3)CCCC2)cc1Cl [Compound 595, 3-[2-chloro-4-[[2-(thiazol-5-ylmethyl)cyclohexen-1-yl]methoxy]phenyl]Propanoic Acid] | 5.96 | 6.66
O=C(O)CCc1ccc(OCC2=C(Cc3cncs3)CCCC2)cc1C(F)(F)F [Compound 596, 3-[4-[[2-(thiazol-5-ylmethyl)cyclohexen-1-yl]methoxy]-2-(trifluoromethyl)phenyl]Propanoic Acid] | 5.63 | 6.49
CCCCC1=C(COc2ccc(CCC(=O)O)c(C(F)(F)F)c2)CCCC1 [Compound 598, 3-[4-[(2-butylcyclohexen-1-yl)methoxy]-2-(trifluoromethyl)phenyl]Propanoic Acid] | 6.40 | 6.75
O=C(O)CCc1ccc(OCC2=C(C3CCC3)CCCC2)cc1C(F)(F)F [Compound 599, 3-[4-[(2-cyclobutylcyclohexen-1-yl)methoxy]-2-(trifluoromethyl)phenyl]Propanoic Acid] | 5.87 | 7.01
O=C(O)CCc1ccc(OCC2=C(C3CCC3)CCCC2)cc1Cl [Compound 600, 3-[2-chloro-4-[(2-cyclobutylcyclohexen-1-yl)methoxy]phenyl]Propanoic Acid] | 5.92 | 7.62
O=C(O)CCc1ccc(OCC2=C(C3CCCCC3)CCCC2)cc1Cl [Compound 602, 3-[2-chloro-4-[(2-cyclohexylcyclohexen-1-yl)methoxy]phenyl]Propanoic Acid] | 5.62 | 5.97
O=C(O)CCc1ccc(OCC2=C(C3CCCC3)CCCC2)cc1C(F)(F)F [Compound 603, 3-[4-[(2-cyclopentylcyclohexen-1-yl)methoxy]-2-(trifluoromethyl)phenyl]Propanoic Acid] | 5.71 | 6.73
CC1(C)CCC(C2CCCC2)=C(COc2ccc(CCC(=O)O)c(C(F)(F)F)c2)C1 [Compound 604, 3-[4-[(2-cyclopentyl-5,5-dimethyl-cyclohexen-1-yl)methoxy]-2-(trifluoromethyl)phenyl]Propanoic Acid] | 5.70 | 5.82
CC1(C)CCC(C2CCCC2)=C(COc2ccc(CCC(=O)O)c(Cl)c2)C1 [Compound 605, 3-[2-chloro-4-[(2-cyclopentyl-5,5-dimethyl-cyclohexen-1-yl)methoxy]phenyl]Propanoic Acid] | 5.93 | 6.07
O=C(O)CCc1ccc(OCC2=C(C3CCCC3)CCCCC2)cc1F [Compound 613, 3-[4-[(2-cyclopentylcyclohepten-1-yl)methoxy]-2-fluoro-phenyl]Propanoic Acid] | 6.36 | 6.65
O=C(O)CCc1ccc(OCC2=C(C3CCCC3)CCCCC2)cc1 [Compound 614, 3-[4-[(2-cyclopentylcyclohepten-1-yl)methoxy]phenyl]Propanoic Acid] | 6.42 | 6.25

The next molecules have a higher pEC50 (Human GPR120 short form) than those just listed; values first:

pEC50 (Human GPR120 short form) | pEC50 (human GPR40) | SMILES
6.78 | 6.61 | O=C(O)CCc1ccc(OCC2=C(C3CCCC3)CCC(F)(F)C2)cc1C(F)(F)F [Compound 606, 3-[4-[(2-cyclopentyl-5,5-difluoro-cyclohexen-1-yl)methoxy]-2-(trifluoromethyl)phenyl]Propanoic Acid]
6.83 | 6.49 | O=C(O)CCc1ccc(OCC2=C(C3CCCC3)CCC(F)(F)C2)cc1Cl [Compound 607, 3-[2-chloro-4-[(2-cyclopentyl-5,5-difluoro-cyclohexen-1-yl)methoxy]phenyl]Propanoic Acid]
6.52 | 6.57 | O=C(O)CCc1ccc(OCC2=C(C3CCCC3)CCC(F)(F)CC2)cc1F [Compound 610, 3-[4-[(2-cyclopentyl-5,5-difluoro-cyclohepten-1-yl)methoxy]-2-fluoro-phenyl]Propanoic Acid]
6.51 | 6.13 | O=C(O)CCc1ccc(OCC2=C(C3CCCC3)CCC(F)(F)CC2)cc1 [Compound 611, 3-[4-[(2-cyclopentyl-5,5-difluoro-cyclohepten-1-yl)methoxy]phenyl]Propanoic Acid]
6.63 | 6.97 | O=C(O)CCc1ccc(OCC2=C(C3CCCC3)CCCCC2)cc1C(F)(F)F [Compound 612, 3-[4-[(2-cyclopentylcyclohepten-1-yl)methoxy]-2-(trifluoromethyl)phenyl]Propanoic Acid]
6.76 | < 5.00 | Cc1c(CCC(=O)O)ccc(OCC2=C(c3ccc(Cl)cc3)CCCCC2)c1C [Compound 615, 3-[4-[[2-(4-chlorophenyl)cyclohepten-1-yl]methoxy]-2,3-dimethyl-phenyl]Propanoic Acid]
6.78 | 5.45 | Cc1c(CCC(=O)O)ccc(OCC2=C(c3ccc(Cl)cc3)CCC(F)(F)CC2)c1C [Compound 616, 3-[4-[[2-(4-chlorophenyl)-5,5-difluoro-cyclohepten-1-yl]methoxy]-2,3-dimethyl-phenyl]Propanoic Acid]
6.67 | 6.99 | O=C(O)CCc1ccc(OCC2=C(C3CCCC3)CCC(F)(F)CC2)cc1C(F)(F)F [Compound 617, 3-[4-[(2-cyclopentyl-5,5-difluoro-cyclohepten-1-yl)methoxy]-2-(trifluoromethyl)phenyl]Propanoic Acid]
6.73 | < 5.00 | Cc1c(CCC(=O)O)ccc(OCC2=C(C3CCCC3)CCC(F)(F)CC2)c1C [Compound 618, 3-[4-[(2-cyclopentyl-5,5-difluoro-cyclohepten-1-yl)methoxy]-2,3-dimethyl-phenyl]Propanoic Acid]
